Tested on: 958667-338-R-J2-PDC tumor spheroids viability
Experiment: Anticancer human tumor 958667-338-R-J2-PDC patient-derived colon adenocarcinoma cell line growth inhibition [PI3K]
Conditions: spheroids with HUVEC and MSC; for viability, T/C: stronger effect = lower value
Outline: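 Combination activity was assessed by viability in multicellular tumor spheroids carrying HUVEC and MSC components. Agents were tested with PI3K inhibitors from a Cmax-based top dose (or 10 microM) downward in half-log increments.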

[1] = curve of first compound, second compound 0.00316 µM
[2] = curve of first compound, second compound 0.01 µM
[3] = curve of first compound, second compound 0.0316 µM
[4] = curve of first compound, second compound 0.1 µM
[5] = curve of first compound, second compound 0.316 µM
[6] = curve of first compound, second compound 1 µM
[7] = second compound 0.00316 µM, first compound 0.0316 µM
[8] = second compound 0.00316 µM, first compound 0.1 µM
[9] = second compound 0.00316 µM, first compound 0.316 µM
[10] = second compound 0.00316 µM, first compound 1 µM
[11] = second compound 0.00316 µM, first compound 3.16 µM
[12] = second compound 0.00316 µM, first compound 10 µM
[13] = second compound 0.01 µM, first compound 0.0316 µM
[14] = second compound 0.01 µM, first compound 0.1 µM
[15] = second compound 0.01 µM, first compound 0.316 µM
[16] = second compound 0.01 µM, first compound 1 µM
[17] = second compound 0.01 µM, first compound 3.16 µM
[18] = second compound 0.01 µM, first compound 10 µM
[19] = second compound 0.0316 µM, first compound 0.0316 µM
[20] = second compound 0.0316 µM, first compound 0.1 µM
[21] = second compound 0.0316 µM, first compound 0.316 µM
[22] = second compound 0.0316 µM, first compound 1 µM
[23] = second compound 0.0316 µM, first compound 3.16 µM
[24] = second compound 0.0316 µM, first compound 10 µM
[25] = second compound 0.1 µM, first compound 0.0316 µM
[26] = second compound 0.1 µM, first compound 0.1 µM
[27] = second compound 0.1 µM, first compound 0.316 µM
[28] = second compound 0.1 µM, first compound 1 µM
[29] = second compound 0.1 µM, first compound 3.16 µM
[30] = second compound 0.1 µM, first compound 10 µM
[31] = second compound 0.316 µM, first compound 0.0316 µM
[32] = second compound 0.316 µM, first compound 0.1 µM
[33] = second compound 0.316 µM, first compound 0.316 µM
[34] = second compound 0.316 µM, first compound 1 µM
[35] = second compound 0.316 µM, first compound 3.16 µM
[36] = second compound 0.316 µM, first compound 10 µM
[37] = second compound 1 µM, first compound 0.0316 µM
[38] = second compound 1 µM, first compound 0.1 µM
[39] = second compound 1 µM, first compound 0.316 µM
[40] = second compound 1 µM, first compound 1 µM
[41] = second compound 1 µM, first compound 3.16 µM
[42] = second compound 1 µM, first compound 10 µM
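Further: spheroids exposed to compounds for seven days before readout.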

C#Cc1c(F)ccc2cc(O)cc(-c3ncc4c(N5CC6CCC(C5)N6)nc(OCC56CCCN5CC(F)C6)nc4c3F)c12 (stereo unspecified) + CC(Nc1ccc2c(c1)OCCn1cc(N3C(=O)OCC3C(F)F)nc1-2)C(N)=O
IC50 [1]: > 10 µM | IC50 [2]: > 10 µM | IC50 [3]: 8.56 µM | IC50 [4]: 6.62 µM | IC50 [5]: 3.47 µM | IC50 [6]: 1.4 µM | viability, T/C [7]: 95.2% | viability, T/C [8]: 97.9% | viability, T/C [9]: 110% | viability, T/C [10]: 90.9% | viability, T/C [11]: 90.6% | viability, T/C [12]: 60.7% | viability, T/C [13]: 101% | viability, T/C [14]: 120% | viability, T/C [15]: 121% | viability, T/C [16]: 97.3% | viability, T/C [17]: 74.2% | viability, T/C [18]: 74.2% | viability, T/C [19]: 99.9% | viability, T/C [20]: 109% | viability, T/C [21]: 100% | viability, T/C [22]: 118% | viability, T/C [23]: 83.1% | viability, T/C [24]: 44.8% | viability, T/C [25]: 69.2% | viability, T/C [26]: 81% | viability, T/C [27]: 77.4% | viability, T/C [28]: 84.1% | viability, T/C [29]: 71.4% | viability, T/C [30]: 37.2% | viability, T/C [31]: 69.1% | viability, T/C [32]: 62% | viability, T/C [33]: 66.7% | viability, T/C [34]: 85.6% | viability, T/C [35]: 52.4% | viability, T/C [36]: 22.5% | viability, T/C [37]: 61% | viability, T/C [38]: 64.4% | viability, T/C [39]: 44.6% | viability, T/C [40]: 57.2% | viability, T/C [41]: 45% | viability, T/C [42]: 25.6%

Cn1nccc1Nc1nccc(-c2ccn(C(CO)c3ccc(Cl)c(F)c3)c(=O)c2)n1 (stereo unspecified) + CC(Nc1ccc2c(c1)OCCn1cc(N3C(=O)OCC3C(F)F)nc1-2)C(N)=O
IC50 [1]: > 10 µM | IC50 [2]: 9.95 µM | IC50 [3]: > 10 µM | IC50 [4]: 6.57 µM | IC50 [5]: 2.11 µM | IC50 [6]: 2.14 µM | viability, T/C [7]: 91.7% | viability, T/C [8]: 81.7% | viability, T/C [9]: 112% | viability, T/C [10]: 104% | viability, T/C [11]: 78.7% | viability, T/C [12]: 69.7% | viability, T/C [13]: 108% | viability, T/C [14]: 104% | viability, T/C [15]: 105% | viability, T/C [16]: 102% | viability, T/C [17]: 75.8% | viability, T/C [18]: 49.9% | viability, T/C [19]: 101% | viability, T/C [20]: 86.4% | viability, T/C [21]: 92.4% | viability, T/C [22]: 104% | viability, T/C [23]: 75.7% | viability, T/C [24]: 74.3% | viability, T/C [25]: 102% | viability, T/C [26]: 77.5% | viability, T/C [27]: 102% | viability, T/C [28]: 90.1% | viability, T/C [29]: 87.4% | viability, T/C [30]: 28.6% | viability, T/C [31]: 81.5% | viability, T/C [32]: 88.9% | viability, T/C [33]: 86% | viability, T/C [34]: 64.6% | viability, T/C [35]: 41.9% | viability, T/C [36]: 16.9% | viability, T/C [37]: 67% | viability, T/C [38]: 64% | viability, T/C [39]: 70.6% | viability, T/C [40]: 53.6% | viability, T/C [41]: 47.6% | viability, T/C [42]: 6.4%

Cn1ncc(Cl)c1-c1cc(C(=O)NC(CN)Cc2cccc(F)c2)sc1Cl (stereo unspecified)
viability, T/C (compound 0.0316 µM): 94.3% [middle of 4 runs] | viability, T/C (compound 0.1 µM): 92.4% [middle of 4 runs] | viability, T/C (compound 0.316 µM): 91.9% [middle of 4 runs] | viability, T/C (compound 1 µM): 74.7% [middle of 4 runs] | viability, T/C (compound 3.16 µM): 53.8% [middle of 4 runs] | viability, T/C (compound 10 µM): 39.3% [middle of 4 runs]

C[C@@H](NC(=O)c1ncnc(N)c1Cl)c1ncc(C(=O)Nc2cc(C(F)(F)F)c(Cl)cn2)s1
viability, T/C (compound 0.0316 µM): 104% [middle of 4 runs] | viability, T/C (compound 0.1 µM): 103% [middle of 4 runs] | viability, T/C (compound 0.316 µM): 106% [middle of 4 runs] | viability, T/C (compound 3.16 µM): 95.3% [middle of 4 runs] | viability, T/C (compound 10 µM): 98.6% [middle of 4 runs] | IC50 (curve of compound): > 10 µM

From PubChem BioAssay AID1963963 (Molecular Pharmacology Branch, DTP, NCI, 2024)
